Test results taken from PubChem BioAssay (NCI).
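The compound was tested at five concentrations on cells cultured in 96-well plates, with a 48-hour exposure period. GI50 marks 50% less growth. At the TGI there is no net growth.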

Assays:
Experiment in all cases: inhibition of tumour cell growth, NCI panel, 48 h
DU-145 prostate = tested on: DU-145 prostate
OVCAR-5 ovarian = tested on: OVCAR-5 ovarian
NCI-H522 lung = tested on: NCI-H522 lung
EKVX NSCLC = tested on: EKVX NSCLC
786-0 renal = tested on: 786-0 renal
M14 melanoma = tested on: M14 melanoma
MALME-3M melanoma = tested on: MALME-3M melanoma
OVCAR-4 ovarian = tested on: OVCAR-4 ovarian
SK-MEL-28 melanoma = tested on: SK-MEL-28 melanoma
MOLT-4 leukemia = tested on: MOLT-4 leukemia
NCI-H460 lung = tested on: NCI-H460 lung
HOP-92 NSCLC = tested on: HOP-92 NSCLC
UACC-257 melanoma = tested on: UACC-257 melanoma
HCT-116 colon = tested on: HCT-116 colon
HS 578T breast = tested on: HS 578T breast
KM12 colon = tested on: KM12 colon
NCI-H226 lung = tested on: NCI-H226 lung
SF-539 CNS = tested on: SF-539 CNS
SF-295 CNS = tested on: SF-295 CNS
K-562 leukemia = tested on: K-562 leukemia
SW-620 colon = tested on: SW-620 colon
UO-31 renal = tested on: UO-31 renal
HL-60(TB) leukemia = tested on: HL-60(TB) leukemia
MDA-MB-468 breast = tested on: MDA-MB-468 breast
TK-10 renal = tested on: TK-10 renal
UACC-62 melanoma = tested on: UACC-62 melanoma
T-47D breast = tested on: T-47D breast
RXF 393 renal = tested on: RXF 393 renal
SK-MEL-2 melanoma = tested on: SK-MEL-2 melanoma
SNB-19 CNS = tested on: SNB-19 CNS
MDA-MB-435 = tested on: MDA-MB-435
HCC-2998 colon = tested on: HCC-2998 colon
PC-3 prostate = tested on: PC-3 prostate
CAKI-1 renal = tested on: CAKI-1 renal
IGROV1 ovarian = tested on: IGROV1 ovarian
A549 NSCLC = tested on: A549 NSCLC
SN12C renal = tested on: SN12C renal
SK-MEL-5 melanoma = tested on: SK-MEL-5 melanoma
MCF7 breast = tested on: MCF7 breast
SF-268 CNS = tested on: SF-268 CNS
COLO 205 colon = tested on: COLO 205 colon
MDA-MB-231 breast = tested on: MDA-MB-231 breast
OVCAR-3 ovarian = tested on: OVCAR-3 ovarian
OVCAR-8 ovarian = tested on: OVCAR-8 ovarian
HOP-62 NSCLC = tested on: HOP-62 NSCLC
HT29 colon = tested on: HT29 colon
BT-549 breast = tested on: BT-549 breast
SK-OV-3 ovarian = tested on: SK-OV-3 ovarian
HCT-15 colon = tested on: HCT-15 colon
ACHN renal = tested on: ACHN renal
SR leukemia = tested on: SR leukemia
A498 renal = tested on: A498 renal
SNB-75 CNS = tested on: SNB-75 CNS
U251 CNS = tested on: U251 CNS
NCI-H23 lung = tested on: NCI-H23 lung
LOX IMVI melanoma = tested on: LOX IMVI melanoma

O=C(/C=C/c1ccccc1)c1nc2ccccc2n1Cc1ccc(Br)cc1
GI50 (DU-145 prostate): 3.96 µM
TGI (DU-145 prostate): 18.6 µM
GI50 (OVCAR-5 ovarian): 2.2 µM
TGI (OVCAR-5 ovarian): 4.54 µM
GI50 (NCI-H522 lung): 1.84 µM
TGI (NCI-H522 lung): 4.04 µM
GI50 (EKVX NSCLC): 2.75 µM
TGI (EKVX NSCLC): 8.44 µM
GI50 (786-0 renal): 1.79 µM
TGI (786-0 renal): 3.34 µM
GI50 (M14 melanoma): 2.16 µM
TGI (M14 melanoma): 4.77 µM
GI50 (MALME-3M melanoma): 1.94 µM
TGI (MALME-3M melanoma): 4.63 µM
GI50 (OVCAR-4 ovarian): 8.7 µM
TGI (OVCAR-4 ovarian): 81.5 µM
GI50 (SK-MEL-28 melanoma): 1.84 µM
TGI (SK-MEL-28 melanoma): 3.74 µM
GI50 (MOLT-4 leukemia): 1.84 µM
TGI (MOLT-4 leukemia): 5.47 µM
GI50 (NCI-H460 lung): 1.8 µM
TGI (NCI-H460 lung): 3.64 µM
GI50 (HOP-92 NSCLC): 1.92 µM
TGI (HOP-92 NSCLC): 8.58 µM
GI50 (UACC-257 melanoma): 3.12 µM
TGI (UACC-257 melanoma): 11.9 µM
GI50 (HCT-116 colon): 1.71 µM
TGI (HCT-116 colon): 3.16 µM
GI50 (HS 578T breast): 4.22 µM
TGI (HS 578T breast): 53.4 µM
GI50 (KM12 colon): 2.95 µM
TGI (KM12 colon): 10.2 µM
GI50 (NCI-H226 lung): 3.8 µM
TGI (NCI-H226 lung): 15.9 µM
GI50 (SF-539 CNS): 1.86 µM
TGI (SF-539 CNS): 3.54 µM
GI50 (SF-295 CNS): 2.22 µM
TGI (SF-295 CNS): 5.25 µM
GI50 (K-562 leukemia): 2.39 µM
TGI (K-562 leukemia): 6.6 µM
GI50 (SW-620 colon): 2 µM
TGI (SW-620 colon): 4.09 µM
GI50 (UO-31 renal): 1.46 µM
TGI (UO-31 renal): 2.97 µM
GI50 (HL-60(TB) leukemia): 1.61 µM
TGI (HL-60(TB) leukemia): 4.17 µM
GI50 (MDA-MB-468 breast): 1.89 µM
TGI (MDA-MB-468 breast): 3.81 µM
GI50 (TK-10 renal): 2.57 µM
TGI (TK-10 renal): 7.63 µM
GI50 (UACC-62 melanoma): 1.85 µM
TGI (UACC-62 melanoma): 4.68 µM
GI50 (T-47D breast): 2.36 µM
TGI (T-47D breast): 10.2 µM
GI50 (RXF 393 renal): 1.51 µM
TGI (RXF 393 renal): 2.84 µM
GI50 (SK-MEL-2 melanoma): 2.23 µM
TGI (SK-MEL-2 melanoma): 5.08 µM
GI50 (SNB-19 CNS): 1.81 µM
TGI (SNB-19 CNS): 3.64 µM
GI50 (MDA-MB-435): 2.25 µM
TGI (MDA-MB-435): 5.95 µM
GI50 (HCC-2998 colon): 1.83 µM
TGI (HCC-2998 colon): 3.42 µM
GI50 (PC-3 prostate): 3.14 µM
TGI (PC-3 prostate): 9.31 µM
GI50 (CAKI-1 renal): 2.6 µM
TGI (CAKI-1 renal): 11.2 µM
GI50 (IGROV1 ovarian): 2.32 µM
TGI (IGROV1 ovarian): 5.53 µM
GI50 (A549 NSCLC): 3.51 µM
TGI (A549 NSCLC): 20.4 µM
GI50 (SN12C renal): 3.46 µM
TGI (SN12C renal): 12.4 µM
GI50 (SK-MEL-5 melanoma): 2.44 µM
TGI (SK-MEL-5 melanoma): 6.95 µM
GI50 (MCF7 breast): 1.78 µM
TGI (MCF7 breast): 6.26 µM
GI50 (SF-268 CNS): 6.92 µM
TGI (SF-268 CNS): > 100 µM
GI50 (COLO 205 colon): 2.36 µM
TGI (COLO 205 colon): 5 µM
GI50 (MDA-MB-231 breast): 2.26 µM
TGI (MDA-MB-231 breast): 5.16 µM
GI50 (OVCAR-3 ovarian): 2.28 µM
TGI (OVCAR-3 ovarian): 5.56 µM
GI50 (OVCAR-8 ovarian): 2.84 µM
TGI (OVCAR-8 ovarian): 8.8 µM
GI50 (HOP-62 NSCLC): 2.21 µM
TGI (HOP-62 NSCLC): 5.09 µM
GI50 (HT29 colon): 2.91 µM
TGI (HT29 colon): 7.34 µM
GI50 (BT-549 breast): 1.93 µM
TGI (BT-549 breast): 4.7 µM
GI50 (SK-OV-3 ovarian): 13.2 µM
TGI (SK-OV-3 ovarian): 57.6 µM
GI50 (HCT-15 colon): 1.67 µM
TGI (HCT-15 colon): 3.47 µM
GI50 (ACHN renal): 3.12 µM
TGI (ACHN renal): 10.1 µM
GI50 (SR leukemia): 1.97 µM
TGI (SR leukemia): 6.01 µM
GI50 (A498 renal): 15.1 µM
TGI (A498 renal): 28.4 µM
GI50 (SNB-75 CNS): 3.83 µM
TGI (SNB-75 CNS): 22.1 µM
GI50 (U251 CNS): 1.65 µM
TGI (U251 CNS): 3.2 µM
GI50 (NCI-H23 lung): 2.01 µM
TGI (NCI-H23 lung): 4.29 µM
GI50 (LOX IMVI melanoma): 1.65 µM
TGI (LOX IMVI melanoma): 3.12 µM
